Assay results published in patent publication US20220249539A1, “BOLAAMPHIPHILIC COMPOUNDS, COMPOSITIONS AND USES THEREOF” (priority 2015, published 2022).

Legend:
[1] = Fluorescence in mouse cerebral cortex after i.v. injection of albumin-FITC; assay type: in vivo; details: FIGS. 5A, 5B
From the text: In addition to the peptide leu-enkephalin, and the small molecules: CF, uranyl acetate, kyotorphin and sucrose, the inventors have also successfully encapsulated in these vesicles the proteins albumin and trypsinogen and the polysaccharide Dextran-FITC (MW 9000).

[2] = test system: patients' gliomas implanted in mice; details: cited from earlier work
[3] = test system: GBM; details: very little gets through the BBB and reaches the tumor; cited from earlier work

Compound | delivery of albumin-FITC to the brain (brain accumulation) [1] | potency rank against patients' gliomas implanted in mice ([2]; out of 40 drugs tested) | effectiveness against tumors tested ([2]; patients' gliomas implanted in mice) | outcome of attempts to treat GBM patients [3]
un-encapsulated albumin-FITC: albumin-FITC (non-encapsulated) | little, if any, brain accumulation |  |  | 
CCc1c2c(nc3ccc(OC(=O)N4CCC(N5CCCCC5)CC4)cc13)-c1cc3c(c(=O)n1C2)COC(=O)[C@]3(O)CC [CPT-11, (S)-4,11-diethyl-3,4,12,14-tetrahydro-4-hydroxy-3,14-dioxo1H-pyrano[3′,4′:6,7]-indolizino[1,2-b]quinolin-9-yl-[1,4′bipiperidine]-1′-carboxylate] |  | the most potent chemotherapeutic agent | effective against every tumor tested | unsuccessful
